Experimental data reported in PubChem BioAssay AID2060618 (Molecular Pharmacology Branch, DTP, NCI, 2025).
pIC50: −log10 of the molar value. Where “and” joins values, the source holds several entries; their conditions need not be identical. Identical values can stand only once.

System: 454973-116-R2-J3-PDC spheroids, percent test/control viability
Experiment: Anticancer human tumor 454973-116-R2-J3-PDC patient-derived pancreatic carcinoma cell line growth inhibition [CLK]
Settings: spheroids with HUVEC and MSC; for viability, T/C: stronger effect = lower value
Procedure, shortened: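 Patient-derived tumor cells grown as complex spheroids with HUVEC endothelial cells and mesenchymal stem cells, treated with drug combinations. Concentrations descend in half-log steps from near clinical Cmax, or from 10 microM if Cmax unknown.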
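Also: spheroids exposed to compounds for 7 days before readout.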

With `Nc1ccn(C2OC(CO)C(O)C2(F)F)c(=O)n1` (stereo not drawn) + CN1CCN(c2cc(C(=O)Nc3cc4cc(-c5cnn(C)c5)ccc4cn3)ccn2)CC1 the pIC50 (curve of first compound, second compound 0.0316 µM) was > 7.50, the pIC50 (curve of first compound, second compound 0.1 µM) was > 7.50 and the pIC50 (curve of first compound, second compound 0.316 µM) was > 7.50. For the same compound, the pIC50 (curve of first compound, second compound 1 µM) was > 7.50, the pIC50 (curve of first compound, second compound 3.16 µM) was > 7.50 and the pIC50 (curve of first compound, second compound 10 µM) was > 7.50. For the same compound, the viability, T/C (second compound 0.0316 µM, first compound 0.0316 µM) was 10.3%, the viability, T/C (second compound 0.0316 µM, first compound 0.1 µM) was 9.2% and the viability, T/C (second compound 0.0316 µM, first compound 0.316 µM) was 11.2%. The viability, T/C (second compound 0.0316 µM, first compound 1 µM) was 10.4%, the viability, T/C (second compound 0.0316 µM, first compound 3.16 µM) was 11% and the viability, T/C (second compound 0.0316 µM, first compound 10 µM) was 12.3%. It also gave a viability, T/C (second compound 0.1 µM, first compound 0.0316 µM) of 10.3%, a viability, T/C (second compound 0.1 µM, first compound 0.1 µM) of 10.5% and a viability, T/C (second compound 0.1 µM, first compound 0.316 µM) of 8.35%. It also gave a viability, T/C (second compound 0.1 µM, first compound 1 µM) of 11.8%, a viability, T/C (second compound 0.1 µM, first compound 3.16 µM) of 12.8% and a viability, T/C (second compound 0.1 µM, first compound 10 µM) of 10.7%. It also gave a viability, T/C (second compound 0.316 µM, first compound 0.0316 µM) of 1.34%, a viability, T/C (second compound 0.316 µM, first compound 0.1 µM) of 3.55% and a viability, T/C (second compound 0.316 µM, first compound 0.316 µM) of 1.4%. It also gave a viability, T/C (second compound 0.316 µM, first compound 1 µM) of 1.47%, a viability, T/C (second compound 0.316 µM, first compound 3.16 µM) of 1.66% and a viability, T/C (second compound 0.316 µM, first compound 10 µM) of 1.1%. The viability, T/C (second compound 1 µM, first compound 0.0316 µM) was 1.36%, the viability, T/C (second compound 1 µM, first compound 0.1 µM) was 0.1% and the viability, T/C (second compound 1 µM, first compound 0.316 µM) was 0.67%. The viability, T/C (second compound 1 µM, first compound 1 µM) was 0.06%, the viability, T/C (second compound 1 µM, first compound 3.16 µM) was 0.07% and the viability, T/C (second compound 1 µM, first compound 10 µM) was 1.87%. The viability, T/C (second compound 3.16 µM, first compound 0.0316 µM) was 0.13%, the viability, T/C (second compound 3.16 µM, first compound 0.1 µM) was 0.16% and the viability, T/C (second compound 3.16 µM, first compound 0.316 µM) was 0.18%. The viability, T/C (second compound 3.16 µM, first compound 1 µM) was 0.15%, the viability, T/C (second compound 3.16 µM, first compound 3.16 µM) was 0.15% and the viability, T/C (second compound 3.16 µM, first compound 10 µM) was 0.15%. It also gave a viability, T/C (second compound 10 µM, first compound 0.0316 µM) of 0.16%, a viability, T/C (second compound 10 µM, first compound 0.1 µM) of 0.66% and a viability, T/C (second compound 10 µM, first compound 0.316 µM) of 0.22%. The viability, T/C (second compound 10 µM, first compound 1 µM) was 1.09%, the viability, T/C (second compound 10 µM, first compound 3.16 µM) was 0.2% and the viability, T/C (second compound 10 µM, first compound 10 µM) was 1.04%.
With `COc1ccc([C@@H](O)c2cc(-c3ncnc4cc(N5CCOCC5)ccc34)c(F)cc2Cl)nn1` the viability, T/C (compound 0.0316 µM) was 105% and 114%, the viability, T/C (compound 0.1 µM) was 108% and 102% and the viability, T/C (compound 0.316 µM) was 95.4% and 102%. The viability, T/C (compound 1 µM) was 92% and 89.2%, the viability, T/C (compound 3.16 µM) was 82.7% and 77.8% and the viability, T/C (compound 10 µM) was 54.3% and 51%. The pIC50 (curve of compound) was < 5.00.
In the case of `Cn1ncnc1[C@H]1c2n[nH]c(=O)c3cc(F)cc(c23)N[C@@H]1c1ccc(F)cc1`, the viability, T/C (compound 0.000316 µM) was 100% and 113%, the viability, T/C (compound 0.001 µM) was 96.3% and 104% and the viability, T/C (compound 0.00316 µM) was 105% and 102%. For the same compound, the viability, T/C (compound 0.01 µM) was 93.3% and 96.9%, the viability, T/C (compound 0.0316 µM) was 93.7% and 87.6% and the viability, T/C (compound 0.1 µM) was 91.9% and 89.7%. The pIC50 (curve of compound) was < 7.00.
`Nc1ccn(C2OC(CO)C(O)C2(F)F)c(=O)n1` (stereo not drawn) was tested, and the viability, T/C (compound 0.0316 µM) was 11% and 7.61%, the viability, T/C (compound 0.1 µM) was 8.58% and 9.53% and the viability, T/C (compound 0.316 µM) was 8.12% and 7.99%. For the same compound, the viability, T/C (compound 1 µM) was 10.4% and 8.26%, the viability, T/C (compound 3.16 µM) was 9.96% and 7.45% and the viability, T/C (compound 10 µM) was 9.46% and 9.19%. The pIC50 (curve of compound) was > 7.50.
